Laboratory results as given in patent US6750212B2, “Photochemotherapeutic compositions” (PhotoCure AS, priority 1997, dated 2004).

How the values were obtained:
[1] = system: Colon carcinoma WiDr; assay: PDT of WiDr colon carcinoma in nude mice, Curelight broad-band lamp one hour after drug, regression/regrowth time; assay type: in vivo, Balb/c nu/nu nude mice; conditions: for effect on tumor growth after PDT: Example 5.1, FIG. 4, 5-ALA 250 mg/kg i.p. and/or chlorin e6 1 mg/kg i.v., lamp 161 mW/cm^2 15 minutes, one hour after injection; for anti-tumour effect after PDT: Example 5.2, FIG. 5, ALA-methyl ester 273 mg/kg i.p. and/or A1PcS2a 1 mg/kg i.v.
Experimental: 5-ALA (ALA) and ALA-Methyl ester (ME) were dissolved in isotonic saline to a final concentration of […].
ALA-Butyl ester (BU) was dissolved in a small amouont of ethanol and diluted further in isotonic saline to a final concentration of […] (final ethanol concentration was 2% v/v).
Aluminium phthalocyanine di-sulfonate (A1PcS2a) (Porphyrin Products Inc.) dissolved in a few drops of 1M NaOH and diluted in phosphate buffered saline (PBS, 10 MM Na-phosphate pH 7.4/150 mM NaCl) to a final concentration of 0.25 mg/ml.
Chlorin e6 (e6)(Porphyrin Products Inc.) was dissolved in PBS to a final concentration of 0.25 mg/ml.
ALA, ALA methyl ester or ALA butyl ester were administered intraperitoneally (i.p.), whereas the sensitizers were injected intravenously (i.v.).
All animals received the same amount of ALA (1.5 mmole), either as the free acid or in the form of an ester. […]
Suspensions of the human tumour (Colon carcinoma WiDr-propagated by serial transplantation) was prepared from non-necrotic areas of the respective tumours and injected (20 μl) into the right hind foot of each mouse. […] Injection volume: 100 μl per mouse (approx. 25 g bodyweight).
Illumination occurred one hour after injection of the drugs instead of three hours that was used in previous examples. In contrast to previous examples, a broad-band lamp that covers the range of 600 to 700 nm (Curelight, patent applied for by PhotoCure AS) was used instead of the laser. This was because the light should cover combinations of phthalocyanines (absorption maximum 670 nm) and protoporphyrin IX (absorption maximum 630 nm) induced by ALA or ALA-esters, respectively.
The average tumour volume in each group (mean ±SD) was calculated and plotted against time. The experiment was terminated when the tumor volume had reached 4-5 times the initial volume.
One hour after injection of the drugs the mice were irradiated using the Curelight broad-band lamp (161 mW/cm^2 for 15 minutes-144.9 J/cm^2).
Responses of the tumors were evaluated as regression/regrowth time. The size of the tumours were measured every second day and the tumour volumes calculated according to the formula in Example 2. The mice were sacrificed when the tumour volume had reached 5 times the initial volume. For each time point, the mean (and the standard deviation of the mean) tumour volume (n=4-5) were calculated. The data were then submitted to statistical analysis (Q-test/90% confidence interval) and extreme values were rejected.

[2] = system: WiDr human colonic carcinoma; assay: PDT of WiDr human colonic carcinoma in nude mice, laser light 3 hours after drug, tumor regression/regrowth time; assay type: in vivo, Balb/c nu/nu nude mice
Excerpt: 5-aminolevulinic acid (ALA) hydrochloride was purchased from Sigma Chemical Company (St. Louis, Mo.). ALA was freshly dissolved in isotonic saline and given intraperitoneally to mice. PHOTOFRIN® vascular stroma-localizing photosensitizer was obtained from Quadra Logic Technologies (Vancouver, Canada). The solution of PHOTOFRIN® vascular stroma-localizing photosensitizer was made up in isotonic solution containing 5% dextrose and given to mice intravenously via the tail vein.
Female Balb/c nu/nu nude mice were obtained from The Animal Department, The Norwegian Radium Hospital, housed 10 per cage and kept under specific-pathogen-free conditions. The mice were 6 weeks old and weighed 20-22 g when the experiments started. The WiDr human colonic carcinoma, used in the present study, was propagated by serial transplantation into the nude mice. Non-necrotic tumor material for inoculation was obtained by sterile dissection of large flange tumors from syngeneic mice. Macroscopically viable tumor tissue was gently minced with a pair of scissors and forced repeatedly through sterile needles of diminishing sizes from 19-gauge to 25-gauge to make a tumor-tissue suspension, 0.02 ml of which was then injected into the dorsal side of the right hind foot of each mouse. The rate of successful transplantations was nearly 100% in the present experiments. […] The tumor volume was calculated using the following formula: […]
where D1, D2 and D3 are three orthogonal diameters of the tumors which were measured daily by a caliper.
Unanesthetized mice were fixed in Lucite jigs specially designed for irradiation. The tumor area was exposed to red light from a dicyanomethylane-2-methyl-6-(p-dimethylaminostyryl)-4 H-pyran (DCM) dye laser pumped by a 5W argon ion laser (Spectra Physics, 164). The tuning range was 610-690 nm. The dye laser was tuned at 632 for both ALA-derived PpIX and PHOTOFRIN®vascular stroma-localizing photosensitizer, the tuning being controlled by means of a monochromator. […]
Responses of the treated tumors were evaluated as described previously.

[3] = system: Human rectal papillary villous adenomas; assay: Fluorescence localization in human rectal papillary villous adenomas by fluorescence microscopy; assay type: in vivo; conditions: 4.5 hours after oral administration of 60 mg/kg ALA; FIG. 3 B
Experimental: Human rectal papillary villous adenomas from 2 patients with severe dysplasia and with a diarrheal history for some months before diagnosis were sampled 44 hours after intravenous injection of 2 mg/kg body weight PHOTOFRIN® vascular stroma-localizing photosensitizer or 4.5 hours after oral administration of 60 mg/kg ALA. The samples were immediately immersed in liquid nitrogen, then mounted in medium (Tissue Tek II embedding compound: BDH, Poole, UK). Frozen tissue sections were cut with a cryostat to a thickness of 8 Am and mounted on clean glass slides. The fluorescence localization patterns of ALA-induced PpIX and PHOTOFRIN were studied by fluorescence microscopy. The fluorescence microscopy was carried out with an Axioplan microscope (Zeiss, Germany). The filter combination comprised a 390-440 nm excitation filter, a 460 nm beam splitter and a >600 nm emission filter. The fluorescence images were recorded by a CCD camera (Astromed CCD 3200, Cambridge, UK) and an image processing unit (Astromed/Visilog, PC 486DX2 66 MHz VL).

[4] = Example 5.4, FIG. 7, 5-ALA butyl ester 338 mg/kg i.p. and/or A1PcS2a 1 mg/kg i.v., lamp one hour after injection
[5] = Example 3, FIG. 2, ALA 250 mg/kg i.p. (632 nm) and/or m-THPC 75 μg/kg i.v. (652 nm), laser light 3 hours after drug
[6] = Example 5.5, FIG. 8, 5-ALA methyl ester 273 mg/kg i.p. and/or A1PcS4 1 mg/kg i.v., lamp one hour after injection

`CCCCOC(=O)CCC(=O)CN` [ALA butyl ester, 5-ALA butyl ester] was tested, and the “time for tumours to reach 4 times the initial volume” value ([1]; Example 5.3, FIG. 6, 5-ALA butyl ester 338 mg/kg i.p. alone, lamp one hour after injection) was 11 days and the “effect on tumour growth after PDT” value [1, 4] was “almost no effect”.

In the case of `NCC(=O)CCC(=O)O` [ALA, 5-aminolevulinic acid], the “effect on tumor growth after PDT” value ([2]; Example 2, FIG. 1, ALA 250 mg/kg i.p. and/or PHOTOFRIN 1 mg/kg i.v., laser 632 nm, 150 mW/cm^2 for 15 min, 3 hours after drug) is reported as “had an effect on the tumor growth”, the “effect on tumor growth after PDT” value [2, 5] is reported as “had an effect on the tumor growth” and the “effect on tumor growth after PDT” value [1] is reported as “had no effect”. The “fluorescence localization of ALA-induced porphyrins in tumor tissue” value [3] was “almost entirely localized within the tumor cells”.

For `COC(=O)CCC(=O)CN` [ALA-methyl ester, 5-ALA methyl ester], the “anti-tumour effect after PDT” value ([1]; lamp one hour after injection) was “had no anti-tumour effect” and the “effect on tumour growth after PDT” value [1, 6] was “did not have any effect on tumor growth”.

`C=Cc1c(C)c2cc3nc(c(CC(=O)O)c4[nH]c(cc5nc(cc1[nH]2)C(C)=C5CC)c(C)c4C(=O)O)[C@@H](CCC(=O)O)[C@@H]3C` [chlorin e6] was tested, and the “effect on tumor growth after PDT” value [1] was “had no effect”.

`Oc1cccc(-c2c3nc(c(-c4cccc(O)c4)c4ccc([nH]4)c(-c4cccc(O)c4)c4nc(c(-c5cccc(O)c5)c5ccc2[nH]5)CC4)C=C3)c1` [m-THPC, tetra(meso-hydroxyphenyl)chlorin] was tested, and the “effect on tumor growth after PDT” value [2, 5] was “no effect”.

With “Aluminium phthalocyanine di-sulfonate [A1PcS2a]” the “anti-tumour effect after PDT” value ([1]; lamp one hour after injection) was “a slight effect”, the “effect on tumour growth after PDT” value [1, 4] was “immediate effect” and the “time to 4× initial tumour volume” value ([1]; Example 5.4, FIG. 7, A1PcS2a 1 mg/kg i.v. alone, lamp one hour after injection) was at most 14 days.

With “Aluminium phthalocyanine tetra-sulfonate [A1PcS4]” the “effect on tumour growth after PDT” value ([1]; Example 5.3, FIG. 6, 5-ALA butyl ester 338 mg/kg i.p. and/or A1PcS4 1 mg/kg i.v., lamp one hour after injection) was “moderate effect on tumour growth”, the “effect on tumour growth after PDT” value ([1]; Example 5.3, FIG. 6, high dose A1PcS4 5 mg/kg i.v. alone, lamp one hour after injection) was “strongly delayed growth” and the “effect on tumour growth after PDT” value [1, 6] was “intermediate effect”.
